One assay deals with UWB1.289 cells. In words: Cell proliferation inhibitory activity in BRCA1/2-mutant or HRD-positive cells (Cell Titer-Glo). The class given is cell-based. Particulars: read-out: GI50 UWB1.289 BRCA1 mut. In a few lines: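 GI50 from CellTiter-Glo luminescence after 144 h compound exposure at 37 °C. Cells seeded at 1,000 per well in MEBM/RPMI1640 mix 16–24 h beforehand; […] from 10 µM down to 1.5 nM final (3-fold steps).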

Another assay has as its target T1, recombinant USP1 protein (Homo sapiens, UniProt O94782, DEL125-138/DEL229-408/DEL608-737).
T1 sequence (O94782 with tags, fused parts or gaps DEL125-138/DEL229-408/DEL608-737): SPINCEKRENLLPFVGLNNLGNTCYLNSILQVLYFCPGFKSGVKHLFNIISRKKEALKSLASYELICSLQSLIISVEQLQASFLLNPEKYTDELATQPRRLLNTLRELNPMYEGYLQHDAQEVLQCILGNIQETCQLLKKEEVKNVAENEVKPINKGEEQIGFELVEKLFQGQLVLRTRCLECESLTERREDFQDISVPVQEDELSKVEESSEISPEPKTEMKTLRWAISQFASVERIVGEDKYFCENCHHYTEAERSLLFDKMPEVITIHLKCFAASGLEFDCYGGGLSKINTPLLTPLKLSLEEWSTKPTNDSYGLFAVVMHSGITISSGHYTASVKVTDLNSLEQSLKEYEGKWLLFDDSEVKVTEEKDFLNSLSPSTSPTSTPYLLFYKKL
In words: Binding affinity to recombinant USP1 protein by differential scanning fluorimetry. As to conditions: read-out: ΔTm (°C). An outline of the steps: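 Thermal shift readout: ΔTm is the compound-well melting temperature less the DMSO-well value, measured by real-time PCR. Compounds tested at 100 µM final against 0.03 mg/mL truncated USP1 (Δ1-66, Δ125-138, Δ229-408, Δ608-737) in pH 8.0 Tris buffer containing 150 mM NaCl, 2% glycerol, 1 mM DTT.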
For orientation: In DSF a fluorescence change marks the thermal transition of the protein.

The mark [1] stands for this setting: UWB1289, UWB1.289 cells, 144 hours after compound treatment, Cell Titer-Glo, 1.5 nM to 10 µM.
[2] abbreviates: compound 100 µM, 0.03 mg/mL USP1 (Δ1-66, Δ125-138, Δ229-408, Δ608-737), Tm with compound minus Tm with DMSO.

Drawing on patent EP4806898A1, “HETEROARYL DERIVATIVE COMPOUND AND USE THEREOF” (Voronoi Inc., priority 2023, dated 2025), this text covers GI50 and ΔTm for 16 compounds.

Where two headings read alike, the source gives them in different places.

For the compound `CCC1(NC(=O)c2cc3cnc(-c4c(OC)ncnc4C4CC4)nc3n2Cc2ccc(-c3nc(C(F)(F)F)cn3C(C)C)cc2)COC1` [Example 132, 2-(4-cyclopropyl-6-methoxypyrimidin-5-yl)-N-(3-ethyloxetan-3-yl)-7-(4-(1-isopropyl-4-(trifluoromethyl)-1H-imidazol-2-yl)benzyl)-7H-pyrrolo[2,3-d]pyrimidine-6-carboxamide], the GI50 in the assay with UWB1.289 cells (setting [1]) is less than 100 nM. The shift in melting temperature (ΔTm) at 100 µM at recombinant USP1 protein (setting [2]) was more than 5 °C.
As to `COc1ncnc(C2CC2)c1-c1ncc2cc(C(=O)NCC3(F)COC3)n(Cc3ccc(-c4nc(C(F)(F)F)cn4C(C)C)cc3)c2n1` [Example 142, 2-(4-cyclopropyl-6-methoxypyrimidin-5-yl)-N-((3-fluorooxetan-3-yl)methyl)-7-(4-(1-isopropyl-4-(trifluoromethyl)-1H-imidazol-2-yl)benzyl)-7H-pyrrolo[2,3-d]pyrimidine-6-carboxamide], in the assay on UWB1.289 cells (setting [1]), the 50% growth inhibitory concentration (GI50) was less than 100 nM. The ΔTm at 100 µM at recombinant USP1 protein (setting [2]) is more than 5 °C.
The matching figures for `CNC(=O)c1cc2cnc(-c3c(OC)ncnc3C3CC3)nc2n1Cc1ccc(-c2cc(C)ccn2)cc1` [Example 209, 2-(4-cyclopropyl-6-methoxypyrimidin-5-yl)-N-methyl-7-(4-(4-methylpyridin-2-yl)benzyl)-7H-pyrrolo[2,3-d]pyrimidine-6-carboxamide]: less than 100 nM and more than 5 °C.
As for `CNC(=O)c1cc2cnc(-c3ccccc3C(C)C)nc2n1Cc1ccc(-c2nc(C(F)(F)F)cn2C(C)C)cc1` [Example 2, 7-(4-(1-isopropyl-4-(trifluoromethyl)-1H-imidazol-2-yl)benzyl)-2-(2-isopropylphenyl)-N-methyl-7H-pyrrolo[2,3-d]pyrimidine-6-carboxamide], in the assay on UWB1.289 cells (setting [1]), the GI50 was less than 100 nM. The ΔTm at 100 µM at recombinant USP1 protein (setting [2]) is more than 5 °C.
In the case of `COc1ncnc(C2CC2)c1-c1ncc2cc(C(=O)N[C@@H]3CCN(C)[C@H](C)C3)n(Cc3ccc(-c4nc(C(F)(F)F)cn4C)cc3)c2n1` [Example 199, 2-(4-cyclopropyl-6-methoxypyrimidin-5-yl)-N-((2R,4R)-1,2-dimethylpiperidin-4-yl)-7-(4-(1-methyl-4-(trifluoromethyl)-1H-imidazol-2-yl)benzyl)-7H-pyrrolo[2,3-d]pyrimidine-6-carboxamide], in the assay with UWB1.289 cells (setting [1]), the GI50 is less than 100 nM. In addition, at recombinant USP1 protein (setting [2]), the ΔTm at 100 µM was more than 5 °C.
For `CNC(=O)c1cc2cnc(-c3c(OC)ncnc3C3CC3)nc2n1Cc1ccc(-c2nc(C(F)(F)F)cn2C)c(OC)c1` [Example 194, 2-(4-cyclopropyl-6-methoxypyrimidin-5-yl)-7-(3-methoxy-4-(1-methyl-4-(trifluoromethyl)-1H-imidazol-2-yl)benzyl)-N-methyl-7H-pyrrolo[2,3-d]pyrimidine-6-carboxamide], in that order: 100 to 500 nM and more than 5 °C.
Regarding `COc1ncnc(C2CC2)c1-c1ncc2cc(C(=O)N(C)CC3COC3)n(Cc3ccc(-c4nc(C(F)(F)F)cn4C(C)C)cc3)c2n1` [Example 139, 2-(4-cyclopropyl-6-methoxypyrimidin-5-yl)-7-(4-(1-isopropyl-4-(trifluoromethyl)-1H-imidazol-2-yl)benzyl)-N-methyl-N-(oxetan-3-ylmethyl)-7H-pyrrolo[2,3-d]pyrimidine-6-carboxamide], in the assay with UWB1.289 cells (UWB1289, 144 h), the GI50 is less than 100 nM. In addition, on recombinant USP1 protein, the shift in melting temperature (ΔTm) at 100 µM is more than 5 °C.
With `CNC1CN(C(=O)c2cc3cnc(-c4c(OC)ncnc4C4CC4)nc3n2Cc2ccc(-c3nc(C(F)(F)F)cn3C(C)C)cc2)C1` [Example 144, (2-(4-cyclopropyl-6-methoxypyrimid in-5-yl)-7-(4-(1-isopropyl-4-(trifluoromethyl)-1H-imidazol-2-yl)benzyl) -7H-pyrrolo[2,3-d]pyrimidin-6-yl) (3-(methylamino)azetidin-1-yl)methanone], in the assay with UWB1.289 cells (setting [1]), the GI50 is less than 100 nM. Besides, at recombinant USP1 protein (setting [2]), the ΔTm at 100 µM is more than 5 °C.
The matching figures for `COc1ncnc(C2CC2)c1-c1ncc2cc(C(=O)NC3CCC(N(C)C)CC3)n(Cc3ccc(-c4nc(C(F)(F)F)cn4C(C)C)cc3)c2n1` (centres unmarked) [Example 158, 2-(4-cyclopropyl-6-methoxypyrimidin-5-yl)-N-(4-(dimethylamino)cyclohexyl)-7-(4-(1-isopropyl-4-(trifluoromethyl)-1H-imidazol-2-yl)benzyl)-7H-pyrrolo[2,3-d]pyrimidine-6-carboxamide]: less than 100 nM and more than 5 °C.
The matching figures for `COc1ncnc(C2CC2)c1-c1ncc2cc(C(N)=O)n(Cc3ccc(-c4nc(C(F)(F)F)cn4C(C)C)cc3)c2n1` [Example 32, 2-(4-cyclopropyl-6-methoxypyrimidin-5-yl)-7-(4-(1-isopropyl-4-(trifluoromethyl)-1H-imidazol-2-yl)benzyl)-7H-pyrrolo[2,3-d]pyrimidine-6-carboxamide]: less than 100 nM and more than 5 °C.
In the case of `COc1ncnc(C2CC2)c1-c1ncc2cc(C(=O)NCCCN(C)C)n(Cc3ccc(-c4nc(C(F)(F)F)cn4C(C)C)cc3)c2n1` [Example 33], the concentration for 50% growth inhibition (GI50) in the assay with UWB1.289 cells (setting [1]) is less than 100 nM. Also, the ΔTm at 100 µM on recombinant USP1 protein (setting [2]) was more than 5 °C.
With `CNC(=O)c1cc2cnc(-c3c(OC)ncnc3C3CC3)nc2n1Cc1ccc(-n2nc(C(C)(C)O)cc2C)cc1` [Example 188, 2-(4-cyclopropyl-6-methoxypyrimidin-5-yl)-7-(4-(3-(2-hydroxypropan-2-yl)-5-methyl-1H-pyrazol-1-yl)benzyl)-N-methyl-7H-pyrrolo[2,3-d]pyrimidine-6-carboxamide], the 50% growth inhibitory concentration (GI50) with UWB1.289 cells (setting [1]) was in the range of 100 to 500 nM. At recombinant USP1 protein (setting [2]), the ΔTm at 100 µM was more than 5 °C.
`COc1ncnc(C2CC2)c1-c1ncc2cc(C(=O)N[C@H]3CCN(C)C3)n(Cc3ccc(-c4nc(C(F)(F)F)cn4C)cc3)c2n1` [Example 173, (S)-2-(4-cyclopropyl-6-methoxypyrimidin-5-yl)-7-(4-(1-methyl-4-(trifluoromethyl)-1H-imidazol-2-yl)benzyl)-N-(1-methylpyrrolidin-3-yl)-7H-pyrrolo[2,3-d]pyrimidine-6-carboxamide]: the concentration for 50% growth inhibition (GI50) with UWB1.289 cells (setting [1]) was less than 100 nM. Besides, the shift in melting temperature (ΔTm) at 100 µM at recombinant USP1 protein (setting [2]) was more than 5 °C.
For `COc1ncnc(C2CC2)c1-c1ncc2cc(C(=O)N[C@H]3C[C@H]3F)n(Cc3ccc(-c4nc(C(F)(F)F)cn4C(C)C)cc3)c2n1` [Example 129, 2-(4-cyclopropyl-6-methoxypyrimidin-5-yl)-N-((1S,2R)-2-fluorocyclopropyl)-7-(4-(1-isopropyl-4-(trifluoromethyl)-1H-imidazol-2-yl)benzyl)-7H-pyrrolo[2,3-d]pyrimidine-6-carboxamide], in the assay with UWB1.289 cells (setting [1]), the 50% growth inhibitory concentration (GI50) was less than 100 nM. Besides, the thermal shift (ΔTm) at 100 µM at recombinant USP1 protein (setting [2]) is more than 5 °C.
Regarding `COc1ncnc(C2CC2)c1-c1ncc2cc(C(=O)N[C@H]3C[C@@H](OC)C3)n(Cc3ccc(-c4nc(C(F)(F)F)cn4C(C)C)cc3)c2n1` [Example 131, 2-(4-cyclopropyl-6-methoxypyrimidin-5-yl)-7-(4-(1-isopropyl-4-(trifluoromethyl)-1H-imidazol-2-yl)benzyl)-N-((1s,3s)-3-methoxycyclobutyl)-7H-pyrrolo[2,3-d]pyrimidine-6-carboxamide], in the assay with UWB1.289 cells (setting [1]), the 50% growth inhibitory concentration (GI50) is less than 100 nM. For the same compound, the thermal shift (ΔTm) at 100 µM on recombinant USP1 protein (setting [2]) was more than 5 °C.
For `COc1ncnc(C2CC2)c1-c1ncc2cc(C(=O)NCC(C)=O)n(Cc3ccc(-c4nc(C(F)(F)F)cn4C(C)C)cc3)c2n1` [Example 29, 2-(4-cyclopropyl-6-methoxypyrimidin-5-yl)-7-(4-(1-isopropyl-4-(trifluoromethyl)-1H-imidazol-2-yl)benzyl)-N-(2-oxopropyl)-7H-pyrrolo[2,3-d]pyrimidine-6-carboxamide], the GI50 in the assay on UWB1.289 cells (setting [1]) is less than 100 nM. Also, at recombinant USP1 protein (setting [2]), the ΔTm at 100 µM was more than 5 °C.

For orientation: GI50 means the concentration that inhibits growth by half. Usually ΔTm stands for the shift of the melting midpoint relative to a reference.
